Laboratory results: publication PMC12186753 (ACS pharmacology & translational science, 2025)
Where “and” joins values, the source holds several entries; their conditions need not be identical. Identical values can stand only once. Like-named read-outs stand apart in the source and are kept apart here.

Assays:
plasmin [1] = target: T1, plasmin (Homo sapiens, UniProt P00747); assay: Plasmin inhibition assay with chromogenic substrate S-2251 (Dixon plot, Cornish-Bowden plot); format: biochemical; details: for Mode of inhibition (Cornish-Bowden S/Vo vs I plot) / rpAMB (KiAMB/Kihetero) / rpTXA (KiTXA/Kihetero): plasmin; for Ki: read-out: Plasmin Ki, S-2251, 42.5 nM human plasmin, PBS pH 7.4, Dixon plot
human tPA = human tPA (Homo sapiens, UniProt P00750); assay: tPA inhibition assay with chromogenic substrate S-2288 (Dixon plot, Cornish-Bowden plot); format: biochemical; details: for Ki: S-2288, 75 nM human tPA, PBS pH 7.4, Dixon plot; for Mode of inhibition (Cornish-Bowden S/Vo vs I plot): tPA
human thrombin = human thrombin (Homo sapiens, UniProt P00734); assay: Thrombin inhibition assay with fluorogenic Thrombin Substrate III (Dixon plot, Cornish-Bowden plot); format: biochemical; details: for Ki: TSIII, 0.25 U/mL human thrombin, PBS pH 7.4 at 10% DMSO, Dixon plot; for Mode of inhibition (Cornish-Bowden S/Vo vs I plot): thrombin
plasmin [2] = target: T1, plasmin; assay: Annular fibrin clot assay (FITC-tagged fibrin clot lysis by plasmin); format: biochemical; details: for IC50/Ki: annular clot IC50 over S-2251 plasmin Ki
plasmin [3] = target: T1, plasmin; details: read-out: Plasmin Ki; S-2251, 42.5 nM human plasmin, Dixon plot; previously determined; cited from earlier work
plasmin [4] = details: read-out: Plasmin active site Ki reported in the literature; cited from earlier work
[5] = target: LBS on kringle domains of plasmin; details: cited from earlier work

T1 sequence (P00747 97-580 limits assumed): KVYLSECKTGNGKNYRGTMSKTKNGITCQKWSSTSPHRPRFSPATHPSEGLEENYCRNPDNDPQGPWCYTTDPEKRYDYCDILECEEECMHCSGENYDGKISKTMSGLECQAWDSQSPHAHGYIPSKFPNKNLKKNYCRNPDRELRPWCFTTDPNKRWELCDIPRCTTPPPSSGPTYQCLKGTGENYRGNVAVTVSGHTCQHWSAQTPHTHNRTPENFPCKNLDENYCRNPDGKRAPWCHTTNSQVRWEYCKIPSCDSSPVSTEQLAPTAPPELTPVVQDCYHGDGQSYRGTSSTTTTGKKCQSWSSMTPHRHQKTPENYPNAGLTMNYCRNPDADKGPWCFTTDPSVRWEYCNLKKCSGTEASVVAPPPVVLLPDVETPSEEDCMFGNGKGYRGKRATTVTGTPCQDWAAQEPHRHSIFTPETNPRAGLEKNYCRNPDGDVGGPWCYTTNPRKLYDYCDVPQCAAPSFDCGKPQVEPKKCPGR
T1 sequence (P00747 581-810 limits assumed): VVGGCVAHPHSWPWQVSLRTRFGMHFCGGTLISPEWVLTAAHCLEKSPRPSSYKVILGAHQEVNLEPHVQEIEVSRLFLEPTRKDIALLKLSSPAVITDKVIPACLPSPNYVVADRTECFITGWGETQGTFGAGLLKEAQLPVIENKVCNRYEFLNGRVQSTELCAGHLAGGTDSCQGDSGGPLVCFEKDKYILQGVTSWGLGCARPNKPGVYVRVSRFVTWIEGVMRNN
human tPA, sequence (P00750 36-562): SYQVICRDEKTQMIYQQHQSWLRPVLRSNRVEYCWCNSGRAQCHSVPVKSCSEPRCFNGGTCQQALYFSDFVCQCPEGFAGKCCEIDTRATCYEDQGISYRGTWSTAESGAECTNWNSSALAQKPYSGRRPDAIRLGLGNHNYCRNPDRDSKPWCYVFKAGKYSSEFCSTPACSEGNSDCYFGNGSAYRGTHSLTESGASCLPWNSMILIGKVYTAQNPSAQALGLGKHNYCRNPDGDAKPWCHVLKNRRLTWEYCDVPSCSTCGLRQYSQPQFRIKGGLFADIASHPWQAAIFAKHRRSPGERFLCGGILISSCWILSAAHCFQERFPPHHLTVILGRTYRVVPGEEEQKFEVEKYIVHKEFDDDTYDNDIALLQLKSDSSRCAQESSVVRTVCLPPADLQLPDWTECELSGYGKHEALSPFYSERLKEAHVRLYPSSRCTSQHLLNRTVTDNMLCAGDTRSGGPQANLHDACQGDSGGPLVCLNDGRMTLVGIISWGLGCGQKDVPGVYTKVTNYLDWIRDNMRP

| SMILES | Mode of inhibition (Cornish-Bowden S/Vo vs I plot) (plasmin [1]) | rpAMB (KiAMB/Kihetero) (plasmin [1]) | rpTXA (KiTXA/Kihetero) (plasmin [1]) | Ki (plasmin [1]) | Ki (human tPA; read-out: tPA Ki) | Mode of inhibition (Cornish-Bowden S/Vo vs I plot) (human tPA) | Ki (human thrombin; read-out: Thrombin Ki) | Mode of inhibition (Cornish-Bowden S/Vo vs I plot) (human thrombin) | Ki (human thrombin; Thrombin Ki) | other results |
| --- | --- | --- | --- | --- | --- | --- | --- | --- | --- | --- |
| N=C(N)c1ccc(CNC(=O)CCOCCOCCOCCOCCOCCOCCOCCOCCNC(=O)[C@H]2CC[C@H](CN)CC2)cc1 [TXA-dPEG8-AMB] | competitive inhibitor | 11 | 216 | 99.4 µM and 99 µM | 292 ± 0.4 µM | not to be a solely competitive inhibitor | 32.4 µM and 32 µM | competitive inhibitor | – | – |
| N=C(N)c1ccccc1 [Benzamidine, reference compound] | – | – | – | – | – | competitive inhibitor | – | competitive inhibitor | – | – |
| N=C(N)c1ccc(CN)cc1 [4-aminomethyl benzamidine, reference compound] | – | – | – | – | – | competitive inhibitor | – | competitive inhibitor | 344 µM | IC50 (plasmin [2]): 32700 µM; IC50/Ki (plasmin [2]): 29.0; Ki (human tPA; tPA Ki): 5210 µM; Ki (plasmin [3]): 1070 µM |
| N=C(N)c1ccc(CNC(=O)CN(CC(=O)NCc2ccc(C(=N)N)cc2)CC(=O)NCc2ccc(C(=N)N)cc2)cc1 [Tri-AMB] | – | – | – | – | 164 ± 17 µM | competitive inhibitor | 10.7 µM and 11 µM | competitive inhibitor | – | IC50 (plasmin [2]; read-out: Annular IC50, 850 nM plasmin, annular fibrin clot, from Vmax): 7.7 ± 3 µM |
| NC[C@H]1CC[C@H](C(=O)O)CC1 [TXA, Tranexamic acid] | weak competitive inhibitor | – | – | – | – | – | – | – | – | Ki (plasmin [4]): ~40000 µM; Ki ([5]; read-out: Ki for LBS on the K1 domain of plasmin, K1 domain): 1.1 µM; Ki ([5]; read-out: Ki for the other plasmin kringle domain LBS, other kringle domains): ~750 µM |
| N=C(N)c1ccc(C(=O)O)cc1 [4-carboxy benzamidine, reference compound] | – | – | – | – | – | – | – | competitive inhibitor | 151 µM | Ki (plasmin [3]): 292 ± 6.5 µM |
| N=C(N)c1ccc(CNC(=O)CCOCCOCCOCCOCCOCCOCCOCCOCCOCCOCCOCCOCCOCCOCCOCCOCCOCCOCCOCCOCCOCCOCCOCCOCCOCCOCCOCCOCCOCCOCCOCCOCCOCCOCCOCCOCCNC(=O)[C@H]2CC[C@H](CN)CC2)cc1 [TXA-dPEG36-AMB] | competitive inhibitor | 14 | 285 | 75.4 µM and 75 µM | 136 ± 0.7 µM | not to be a solely competitive inhibitor | 77.5 µM and 78 µM | competitive inhibitor | – | – |
| N=C(N)c1ccc(N)cc1 [4-amino benzamidine, reference compound] | – | – | – | – | – | competitive inhibitor | – | competitive inhibitor | – | IC50 (plasmin [2]): 451 ± 70 µM; Ki (human tPA; tPA Ki): 148 µM; Ki (plasmin [3]): 51 ± 2.4 µM |
| N=C(N)c1ccc(OCCCCCOc2ccc(C(=N)N)cc2)cc1 [Pentamidine, reference compound] | – | – | – | – | – | competitive inhibitor | – | competitive inhibitor | 4.48 µM and 4.5 µM | IC50 (plasmin [2]): 3.2 ± 1 µM; IC50/Ki (plasmin [2]): 1.5; Ki (human tPA; tPA Ki): 42.7 µM and 43 µM |
| N=C(N)c1ccc(CNC(=O)CCOCCOCCOCCOCCNC(=O)[C@H]2CC[C@H](CN)CC2)cc1 [TXA-dPEG4-AMB] | competitive inhibitor | 26 | 509 | 42 ± 12 µM | 230 µM and 231 µM | competitive inhibitor | 14.5 µM and 14 µM | competitive inhibitor | – | – |
| N=C(N)c1ccc(CNC(=O)CCOCCOCCOCCOCCOCCOCCOCCOCCOCCOCCOCCOCCNC(=O)[C@H]2CC[C@H](CN)CC2)cc1 [TXA-dPEG12-AMB] | competitive inhibitor | 5 | 103 | 207 ± 4.1 µM | 641 µM | competitive inhibitor | 45.7 µM and 46 µM | competitive inhibitor | – | – |
| N=C(N)c1ccc(CNC(=O)CCOCCOCCOCCOCCNC(=O)CCCCCN)cc1 [EACA-dPEG4-AMB] | competitive inhibitor | – | – | 233 ± 5 µM | 501 µM | competitive inhibitor | 4.05 µM and 4 µM | competitive inhibitor | – | fold stronger inhibitor of thrombin than the TXA counterpart (human thrombin; EACA-dPEG4-AMB vs TXA-dPEG4-AMB, monovalent EACA vs monovalent TXA): 3 fold |
| NCCCCCC(=O)O [EACA, ɛ-aminocaproic acid, reference compound] | weak competitive inhibitor | – | – | – | – | weak competitive inhibitor | – | competitive inhibitor | 65200 µM | – |
